The values that follow come from ChEMBL document CHEMBL5236632, “Membrane-Active Nonivamide Derivatives as Effective Broad-Spectrum Antimicrobials: Rational Design, Synthesis, and Biological Evaluation” (J Med Chem, 2022).

SMILES strings stand for the structures. Converted amounts (≈) assume the structure as drawn. The source made the active and inactive calls. No cut-off for these calls is given here.

Series [1] concerns Staphylococcus aureus. Description: Antibacterial activity against Staphylococcus aureus ATCC 29213 assessed as reduction in bacterial load at 8 time of MIC measured after 8 hrs by time kill assay. It is filed as functional.
In series [2] the test system is Staphylococcus aureus. Nature of the series: Antibacterial activity against methicillin-resistant Staphylococcus aureus N315 assessed as inhibition of visible growth measured after 18 to 24 hrs by broth dilution method. It is filed as functional. The note with it: time 18-24 hrs. On the technique in general: Broth dilution looks for growth in wells or tubes with falling amounts of substance.

Series [3] has as its system Staphylococcus aureus. Description: Antibacterial activity against methicillin-resistant Staphylococcus aureus NCTC 10442 assessed as inhibition of visible growth measured after 18 to 24 hrs by broth dilution method. It is filed as functional. The note with it: time 18-24 hrs.
Series [4] has as its system Staphylococcus aureus. Description: Antibacterial activity against Staphylococcus aureus ATCC 29213 assessed as inhibition of visible growth measured after 18 to 24 hrs by broth dilution method. It is filed as functional. To be noted: time 18-24 hrs.
In series [5] the test system is Escherichia coli. Nature of the series: Antibacterial activity against Escherichia coli ATCC 25922 assessed as inhibition of visible growth measured after 18 to 24 hrs by broth dilution method. It is filed as functional. The note with it: time 18-24 hrs.
Series [6] in a line: Selectivity ratio, HC50 for hemolytic activity in rabbit RBC to MIC for antibacterial activity against methicillin-resistant Staphylococcus aureus N315. Type of series: toxicity. The note with it: rabbit red blood cells.
A short description of series [7]: Selectivity ratio, HC50 for hemolytic activity in rabbit RBC to MIC for antibacterial activity against Klebsiella pneumoniae ATCC 14581. It is filed as toxicity. To be noted: rabbit red blood cells.
A short description of series [8]: Selectivity ratio, HC50 for hemolytic activity in rabbit RBC to MIC for antibacterial activity against Klebsiella pneumoniae ATCC 10031. To be noted: rabbit red blood cells. Type of series: toxicity.
The nature of series [9]: Selectivity ratio, HC50 for hemolytic activity in rabbit RBC to MIC for antibacterial activity against Staphylococcus aureus ATCC 29213. It is filed as toxicity. The note with it: rabbit red blood cells.
The test system of series [10] is Acinetobacter baumannii. Nature of the series: Antibacterial activity against Acinetobacter baumannii ATCC 17978 assessed as inhibition of visible growth measured after 18 to 24 hrs by broth dilution method. It is filed as functional. The note with it: time 18-24 hrs.
Series [11] is described as follows: Selectivity ratio, HC50 for hemolytic activity in rabbit RBC to MIC for antibacterial activity against Pseudomonas aeruginosa ATCC 9027. Type of series: toxicity.
Series [12] in a line: Haemolytic activity in rabbit red blood cells incubated for 60 mins by k multi-mode reader relative to control. It is filed as toxicity, cell-based, Oryctolagus cuniculus, Erythrocyte. The note with it: for HC5: erythrocyte, 1 h.
Series [13] relates to Klebsiella pneumoniae. Nature of the series: Antibacterial activity against Klebsiella pneumoniae ATCC 14581 assessed as inhibition of visible growth measured after 18 to 24 hrs by broth dilution method. It is filed as functional. The note with it: time 18-24 hrs.
The nature of series [14]: Selectivity ratio, HC50 for hemolytic activity in rabbit RBC to MIC for antibacterial activity against methicillin-resistant Staphylococcus aureus NCTC 10442. To be noted: rabbit red blood cells. It is filed as toxicity.
Series [15] concerns Klebsiella pneumoniae. Nature of the series: Antibacterial activity against Klebsiella pneumoniae ATCC 10031 assessed as inhibition of visible growth measured after 18 to 24 hrs by broth dilution method. Type of series: functional. To be noted: time 18-24 hrs.
Series [16] deals with Acinetobacter baumannii. Description: Antibacterial activity against Acinetobacter baumannii R2889 assessed as inhibition of visible growth measured after 18 to 24 hrs by broth dilution method. It is filed as functional. To be noted: time 18-24 hrs.
Series [17] can be described thus: Selectivity ratio, HC50 for hemolytic activity in rabbit RBC to MIC for antibacterial activity against Acinetobacter baumannii ATCC 17978. Type of series: toxicity. The note with it: rabbit red blood cells.
The nature of series [18]: Selectivity ratio, HC50 for hemolytic activity in rabbit RBC to MIC for antibacterial activity against Acinetobacter baumannii R2889. Type of series: toxicity. The note with it: rabbit red blood cells.
The test system of series [19] is Staphylococcus aureus. Nature of the series: Drug resistance development in Staphylococcus aureus ATCC 29213 assessed as fold change in MIC measured after 20 passages. Type of series: functional.
The subject of series [20] is Escherichia coli. Description: Drug resistance development in Escherichia coli ATCC 25922 assessed as fold change in MIC measured after 20 passages. Type of series: functional.
Series [21] relates to Escherichia coli. Description: Antibacterial activity against Escherichia coli ATCC 25922 assessed as reduction in bacterial load at 8 time of MIC measured with in 30 mins by time kill assay. The note with it: 0.5 h. Type of series: functional.
Series [22] deals with Cell membrane. Nature of the series: Induction of outer membrane permeability in Escherichia coli ATCC 25922 assessed as increase fluoresence intensity at 4 to 8 times of MIC measured for 60 mins by NPN uptake assay. Type of series: subcellular.
The test system of another series is Pseudomonas aeruginosa. Nature of the series: Antibacterial activity against Pseudomonas aeruginosa ATCC 9027 assessed as inhibition of visible growth measured after 18 to 24 hrs by broth dilution method. The note with it: time 18-24 hrs. It is filed as functional.
Series [23] deals with Cell membrane. Description: Induction of membrane depolarization in Staphylococcus aureus ATCC 29213 assessed as increase in fluorescence intensity at 4 to 8 times MIC measured for 60 mins by DiSC3(5) dye based fluorescence method. Type of series: subcellular.
Series [24] in a line: Cytotoxicity against mouse NCTC clone 929 cells assessed as cell viability after 24 hrs incubation byCCK-8 assay. It is filed as toxicity, cell-based.
The test system of series [25] is Cell membrane. Description: Induction of membrane depolarization in Escherichia coli ATCC 25922 assessed as increase in fluorescence intensity at 4 to 8 times MIC measured for 60 mins by DiSC3(5) dye based fluorescence method. It is filed as subcellular.
The nature of series [26]: Cytotoxicity against HEK293 cells assessed as cell viability after 24 hrs incubation byCCK-8 assay. The note with it: human. Type of series: toxicity, cell-based.

With `CN[C@H](CC(C)C)C(=O)N[C@H]1C(=O)N[C@@H](CC(N)=O)C(=O)N[C@H]2C(=O)N[C@H]3C(=O)N[C@H](C(=O)N[C@H](C(=O)O)c4cc(O)cc(O)c4-c4cc3ccc4O)[C@H](O)c3ccc(c(Cl)c3)Oc3cc2cc(c3O[C@@H]2O[C@H](CO)[C@@H](O)[C@H](O)[C@H]2O[C@H]2C[C@](C)(N)[C@H](O)[C@H](C)O2)Oc2ccc(cc2Cl)[C@H]1O` [VANCOMYCIN], the Activity with Staphylococcus aureus [1] is 2.44 log10CFU/ml. Further, the MIC was 0.78 mg/L (≈ 0.538 µM) in the series with Staphylococcus aureus [2], 0.78 mg/L (≈ 0.538 µM) in the series with Staphylococcus aureus [3], 1.56 mg/L (≈ 1.08 µM) in the series with Staphylococcus aureus [4] and > 50 mg/L with Escherichia coli [5].

For the compound `CC[C@H](C)[C@H](NC(=O)CN)C(=O)NCC(=O)N[C@@H](C)C(=O)N[C@H](C(=O)N[C@@H](CC(C)C)C(=O)N[C@@H](CCCCN)C(=O)N[C@H](C(=O)N[C@@H](CC(C)C)C(=O)N[C@H](C(=O)N[C@H](C(=O)NCC(=O)N[C@@H](CC(C)C)C(=O)N1CCC[C@H]1C(=O)N[C@@H](C)C(=O)N[C@@H](CC(C)C)C(=O)N[C@H](C(=O)N[C@@H](CO)C(=O)N[C@@H](Cc1c[nH]c2ccccc12)C(=O)N[C@H](C(=O)N[C@@H](CCCCN)C(=O)N[C@@H](CCCNC(=N)N)C(=O)N[C@@H](CCCCN)C(=O)N[C@@H](CCCNC(=N)N)C(=O)N[C@@H](CCC(N)=O)C(=O)N[C@@H](CCC(N)=O)C(N)=O)[C@@H](C)CC)[C@@H](C)CC)[C@@H](C)O)[C@@H](C)O)C(C)C)C(C)C` [MELITTIN], the selectivity ratio in series [6] is 6.1; in [7], 3.1; in [8], 3.1; in series [9] it was 6.1; in series [11] (rabbit red blood cells) it was 3.1; in [14], 6.1. Besides, the selectivity ratio in [17] and in [18] was 3.1 each time. Besides, the MIC with Acinetobacter baumannii [10] turned out to be 3.12 mg/L (≈ 1.1 µM); with Klebsiella pneumoniae [13], 6.25 mg/L (≈ 2.2 µM); in the series with Klebsiella pneumoniae [15], 6.25 mg/L (≈ 2.2 µM); in the series on Acinetobacter baumannii [16], 3.12 mg/L (≈ 1.1 µM). The compound further displayed an HC5 in series [12] of 5.4 µg/mL.

Regarding `CCn1cc(C(=O)O)c(=O)c2cc(F)c(N3CCNCC3)cc21` [NORFLOXACIN], the “fold change (FC)” value in the series with Staphylococcus aureus [19] turned out to be 128.

Take `CC1(C)S[C@@H]2[C@H](NC(=O)[C@H](N)c3ccc(O)cc3)C(=O)N2[C@H]1C(=O)O` [AMOXICILLIN]: the “fold change (FC)” value with Escherichia coli [20] came out at 16. Also, in the series with Escherichia coli [21], the Activity was 0.29 log10CFU/ml.

Regarding `CCCCCCCCC(=O)NCc1ccc(O)c(OC)c1` [NONIVAMIDE], the result with Cell membrane [22], in the series with Cell membrane [23] and in the series on Cell membrane [25] was inactive. Further, the MIC (in the series on Pseudomonas aeruginosa; in the series on Staphylococcus aureus [2]; with Acinetobacter baumannii [10]; in series [11] (erythrocytes); in the series on Klebsiella pneumoniae [13]; in the series with Staphylococcus aureus [3]) was > 50 mg/L each time. The MIC in the series with Klebsiella pneumoniae [15], with Acinetobacter baumannii [16], with Staphylococcus aureus [4] and in the series on Escherichia coli [5] was > 50 mg/L in each case. In series [12], the HC5 was > 200 µg/mL. Also, the HC50 (commonly the concentration that lyses half of the red blood cells) at 1 h in series [12] (rabbit red blood cells) was > 200 µg/mL. For the same compound, the CC50 – broadly, the concentration at which the toxic effect on the cells reaches its halfway point – at 24 h in series [24] was found to be 59 mg/L (≈ 201 µM); in series [26], 62 mg/L (≈ 211 µM).
